The values that follow come from patent US5021421A, “2-(1-Piperazinyl)-4-phenylcycloalkanopyridine derivatives, processes for the production thereof, and pharmaceutical composition containing the same” (Dainippon Pharmaceutical Co., Ltd., priority 1989, dated 1991).

Like-named read-outs stand apart in the source and are kept apart here.

The target of one assay is adrenaline (α1) receptor. The assay can be described thus: In vitro binding to adrenaline (α1) receptor, [3H] WB-4101. Also noted: species or system rats. The note with it: [3H] WB-4101, rat brain crude synaptosome fraction. The procedure: (§1) Dopamine (D2), serotonin (S1, S2) and adrenaline (α1) receptor binding assays were carried out according to the methods of I. Creese et al. [Eur. J. Pharmacol., 46, 377 (1977), S. J. Peroutka et al. [Mol. Pharmacol. 16, 687 (1979)], J. E. Leysen et al. [Mol. Pharmacol., 21, 301 (1982)] and D. C. U'Prichard et al. [Mol. Pharmacol., 13, 454 (1977)], respectively.
(§2) Crude synaptosome fractions were prepared from some brain regions in rats for receptor sources. Radioactive ligands used were [^3 H] spiperone (D2), [^3 H] serotonin (S1), [^3 H] ketanserin (S2) and [^3 H] WB-4101 (α1). The binding assay was performed by incubating aliquots of synaptosome fraction in buffer solution (final volume: 1 ml) containing a [^3 H] labelled ligand and a test compound. The assay was terminated by rapid filtration through Whatman GF/B glass fiber filters attached to a cell-harvester (Brandel) and radioactivity on the filters was counted in a Packard Triscarb scintillation counter. Specific binding was calculated as a difference between amounts of radioactivity in the presence and absence of an unlabelled ligand [spiperone (D2), serotonin (S1), methysergide (S2) and prazosin (α1)]. The IC50 value of the test compounds (concentration causing 50% inhibition of [^3 H] ligand specific binding) was determined by probit analysis.

The test system of assay [1] is apomorphine-induced vomiting. Briefly: Antagonistic effect on apomorphine-induced vomiting. The settings on record: Canis lupus familiaris, sc, apomorphine 0.3 mg/kg s.c. 2 h after compound, read-out: Inhibitory ratio (apomorphine-induced vomiting). The format is in vivo, dogs (Beagle). The procedure:
A group of 3-4 dogs (Beagle, 8-15 kg) was used for examining effects on the test compounds on apomorphine-induced vomiting, a known test for evaluating neuroleptic drugs.
Each dog was given a subcutaneous injection of apomorphine hydrochloride (0.3 mg/kg) two hours after the treatment of the test compounds. Then, the frequency of oral vomiting was counted for one hour. The mean counts of the compound-treated group were compared with those of the corresponding control (non-dosed) group, and the percent inhibition was calculated.

The test system of another assay is exploratory activity. Briefly: Inhibitory effect on exploratory activity (Animex activity meter). The format is in vivo, mice (Std-ddy strain). The settings on record: oral, 2 h after administration, 3 min counting; dose not given. The protocol:
A group of 5 male mice (Std-ddy strain, 20-25 g) was used. Two hours after oral administration of the test compound, mice were placed individually in a test box (23×35×30 cm) on Animex activity meter (Farad Co.). Immediately thereafter, activity counting was started and lasted for three minutes. The mean counts of the compound-treated group were compared with those of the corresponding control (non-dosed) group, and the percent inhibition was calculated.

Another assay deals with T1, dopamine (D2) receptor (Rattus norvegicus, UniProt P61169).
T1 construct: Crude synaptosome fractions were prepared from some brain regions in rats for receptor sources; from tissue
T1 sequence (P61169 whole entry): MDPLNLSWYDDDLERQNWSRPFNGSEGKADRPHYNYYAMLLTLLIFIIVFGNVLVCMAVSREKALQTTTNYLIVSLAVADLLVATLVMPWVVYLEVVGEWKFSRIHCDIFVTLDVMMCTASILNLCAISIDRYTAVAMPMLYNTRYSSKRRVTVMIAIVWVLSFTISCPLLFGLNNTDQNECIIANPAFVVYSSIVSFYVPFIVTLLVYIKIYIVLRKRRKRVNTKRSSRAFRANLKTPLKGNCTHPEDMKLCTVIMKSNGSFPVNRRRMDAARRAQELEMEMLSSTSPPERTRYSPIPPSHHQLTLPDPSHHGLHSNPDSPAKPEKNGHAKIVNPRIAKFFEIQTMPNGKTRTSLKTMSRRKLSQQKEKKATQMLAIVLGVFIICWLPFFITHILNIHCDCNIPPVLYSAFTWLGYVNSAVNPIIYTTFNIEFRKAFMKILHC
The assay can be described thus: In vitro binding to dopamine (D2) receptor, [3H] spiperone. Also on record: species or system rats. The settings on record: [3H] spiperone, rat brain crude synaptosome fraction; read-out: IC50 D2. The protocol:
as §1, §2

Assay [2] has as its system brain monoamine metabolites. Briefly: Increasing effect on concentration of brain monoamine metabolites. Type of assay: in vivo, mice (Std-ddy strain). The note with it: Mus musculus, 2 h, non-dosed=100. The procedure: A group of 5 male mice (Std-ddy strain, 25-30 g) was used for examining effect of the test compounds on concentration of brain monoamine metabolites.
Mice were killed by decapitation 2 hours after treatment with the test compounds. Brains were quickly taken out, homogenized in 1N formic acid-acetone solution, and centrifuged in a refrigerated ultracentrifuge. The supernatant was evaporated by blowing with N2 gas. Then, the residue was again resolved in 0.01 N acetic acid, and served for determining concentration of dopamine metabolites, 3,4-dihydroxyphenylacetic acid (DOPAC) and homovanillic acid (HVA), a norepinephrine metabolite, 3-methyl-4-hydroxyphenylethylene glycol (MOPEG), and a serotonin metabolite, 5-hydroxyindole-3-acetic acid (5-HIAA) concentrations by HPLC with electrochemical detection. The effect of the test compounds on concentration of each monoamine metabolite is shown as % of control (level of non-dosed animals=100) in Table 4.

The next assay concerns the target T2, serotonin (S2) receptor (Rattus norvegicus, UniProt P14842).
T2 construct: Crude synaptosome fractions were prepared from some brain regions in rats for receptor sources; from tissue
Briefly: In vitro binding to serotonin (S2) receptor, [3H] ketanserin. Also noted: species or system rats. The note with it: [3H] ketanserin, rat brain crude synaptosome fraction. The procedure: as §1, §2

The target in the next assay is serotonin (S1) receptor. Briefly: In vitro binding to serotonin (S1) receptor, [3H] serotonin. Also on record: species or system rats. The note with it: rat brain crude synaptosome fraction. The protocol: as §1, §2
In assay [3] the test system is scopolamine-induced deficit of spontaneous alternation. Briefly: Improving effect on scopolamine-induced deficit of spontaneous alternation behavior (T-maze). The format is in vivo, mice (Std-ddY strain). The settings on record: dose 10.0 mg/kg i.p.; scopolamine hydrobromide 1 mg/kg i.p. An excerpt: A group of 15-25 male mice (Std-ddY strain, 22-28 g) was used for evaluating effect of the test compounds on scopolamine-induced deficit of spontaneous alternation in a T-maze, which is a known animal model of memory impairment due to hypofunction of the cholinergic nervous system. The T-maze used consists of a stem and two arms which are 25 cm long, 5 cm wide and 10 cm high. The first 10 cm of the stem and last 10 cm of each arm are divided by sliding doors into start and goal boxes.
A test compound and scopolamine hydrobromide (1 mg/kg) were intraperitoneally administered to each mouse, and after 30 minutes a test of spontaneous alternation task in the T-maze was continuously repeated for 8 trials. Commonly, naive mice alternate each (right and left) goal box in turn, but scopolamine-treated animals tend to enter the same goal box repeatedly. The effect of the test compounds was expressed as % improvement (complete improvement to the alternation level of non-dosed mice=100%).

In assay [4] the test system is cycloheximide-induced amnesia of passive avoidance response. Briefly: Improving effect on cycloheximide-induced amnesia of passive avoidance response. The format is in vivo, mice (Std-ddY strain). The settings on record: cycloheximide 60 mg/kg s.c., retention at 24 h. An excerpt:
Anti-amnesic effect of the test compounds was examined using mice given cycloheximide, which is a known amnesia-inducing agent.
A group of 15-20 male mice (Std-ddY strain, 27-33 g) was subjected to training and retention trials for a passive avoidance task in a step-down apparatus (30×30×50 cm) with a grid floor and a wooden platform (4×4×4 cm) in a center of the floor. In the training trial, each mouse was first placed on the platform. When the mouse stepped down on the grid floor, an electric shock (1 Hz, 0.5 sec, 60 VDC) was delivered to the feet for 15 seconds. Immediately after the training trial, cycloheximide (60 mg/kg, s.c.) and a test compound (i.p.) were administered. The retention trial was carried out 24 hours thereafter, the time from placing again each mouse placed on the platform until stepping down on the grid floor (step-down latency) was measured. The step-down latency in the retention trial was markedly shortened by treatment of cycloheximide (amnesia). The effect of test compounds was assessed by % improvement (complete improvement to the latency level of non-dosed animals=100%).

Where [5] appears, read: read-out: 5-HIAA concentration, % of control.
Setting [6] is: read-out: DOPAC concentration, % of control.
[7] abbreviates: read-out: HVA concentration, % of control.
Where [8] appears, read: read-out: MOPEG concentration, % of control.

T2 sequence (P14842 whole entry): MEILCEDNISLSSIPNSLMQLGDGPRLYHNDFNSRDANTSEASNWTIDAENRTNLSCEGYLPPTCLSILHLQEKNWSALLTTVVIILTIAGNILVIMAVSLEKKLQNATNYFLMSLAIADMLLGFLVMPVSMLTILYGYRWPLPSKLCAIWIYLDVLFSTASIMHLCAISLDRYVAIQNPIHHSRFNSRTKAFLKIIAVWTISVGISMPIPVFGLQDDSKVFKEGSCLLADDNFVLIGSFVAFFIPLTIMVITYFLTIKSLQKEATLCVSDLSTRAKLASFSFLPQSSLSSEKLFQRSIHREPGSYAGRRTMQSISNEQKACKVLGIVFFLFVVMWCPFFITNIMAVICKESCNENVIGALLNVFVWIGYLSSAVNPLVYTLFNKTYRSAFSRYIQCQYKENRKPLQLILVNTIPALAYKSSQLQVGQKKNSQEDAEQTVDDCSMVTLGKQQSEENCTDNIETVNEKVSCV

As usually defined, the IC50 is the concentration at which inhibition is half-maximal. With `CCN1CCN(c2cc(-c3ccc(F)cc3)c3c(n2)CCCCCC3)CC1` [Example 1b, 2-(4-ethyl-1-piperazinyl)-4-(4-fluorophenyl)-5,6,7,8,9,10-hexahydrocycloocta[b]pyridine], the IC50 at adrenaline (α1) receptor came out at 92 nM; on dopamine (D2) receptor it was 46 nM; on serotonin (S2) receptor it was 7 nM. Further, in assay [1] (dose 0.3 mg/kg), the inhibition in vivo at 0.3 mg/kg amounted to 88%. In addition, the “Inhibitory ratio (exploratory activity)” value with exploratory activity was found to be 83.7%. The response vs control in vivo at 1 mg/kg stood at 102% in assay [2] (setting [5]), 235% in assay [2] (setting [6]), 212% in assay [2] (setting [7]) and 118% in [2] (setting [8]).
Take `CCN1CCN(c2cc(-c3ccc(F)cc3F)c3c(n2)CCCCCC3)CC1` [Example 2a, 2-(4-ethyl-1-piperazinyl)-4-(2,4-difluorophenyl)-5,6,7,8,9,10-hexahydrocycloocta[b] pyridine]: the IC50 at adrenaline (α1) receptor is 88 nM; on dopamine (D2) receptor, 24 nM; at serotonin (S2) receptor, 28 nM. Besides, the “Inhibitory ratio (exploratory activity)” value in the assay on exploratory activity worked out at 77.5%.
With `OCCN1CCN(c2cc(-c3ccc(F)cc3)c3c(n2)CCC3)CC1` [Example 7, 2-[4-(2-Hydroxyethyl)-1-piperazinyl]-4-(4-fluoro-phenyl)-6,7-dihydro-5H-1-pyrindine], the inhibition in vivo at 1 mg/kg in [1] turned out to be 80%. In addition, the IC50 worked out at 30 nM on dopamine (D2) receptor and 9.5 nM on serotonin (S2) receptor.
As to `CCN1CCN(c2cc(-c3ccc(F)cc3)c3c(n2)CCCC3)CC1` [Example 15], the IC50 on adrenaline (α1) receptor came to 35 nM; at serotonin (S1) receptor, 1700 nM; at dopamine (D2) receptor, 58 nM; on serotonin (S2) receptor, 19 nM. The inhibition in vivo at 3 mg/kg in [1] turned out to be 100%. In addition, the response vs control in vivo at 10 mg/kg in assay [2] (setting [5]) was found to be 108%; in [2] (setting [6]), 277%; in assay [2] (setting [7]), 235%; in [2] (setting [8]), 118%.
With `CCN1CCN(c2cc(-c3ccccc3)c3c(n2)CCCCC3)CC1` [Example 23, 2-(4-Ethyl-1-piperazinyl)-4-phenyl-6,7,8,9-tetrahydro-5H-cyclohepta[b]pyridine], the half-inhibitory concentration (IC50) worked out at 320 nM at adrenaline (α1) receptor, 2900 nM at serotonin (S1) receptor, 96 nM at dopamine (D2) receptor and 7.7 nM at serotonin (S2) receptor. In addition, the response vs control in vivo at 10 mg/kg in assay [2] (setting [5]) stood at 145%; in [2] (setting [6]), 344%; in [2] (setting [7]) it was 320%; in assay [2] (setting [8]), 115%.
Take `CCN1CCN(c2cc(-c3ccccc3)c3c(n2)C2CCC3C2)CC1` (stereo not shown) [Example 71]: the values for the concentration for half-maximal inhibition (IC50) at adrenaline (α1) receptor, at dopamine (D2) receptor and at serotonin (S2) receptor were 13 nM, 25 nM and 14 nM, respectively. The inhibition in vivo at 3 mg/kg in assay [1] worked out at 84%. Also, the “Inhibitory ratio (exploratory activity)” value in the assay with exploratory activity turned out to be 61.9%.
Regarding `CCN1CCN(c2cc(-c3ccc(F)cc3)c3c(n2)C2CCC3C2)CC1` (stereo not shown) [Example 73], the IC50 at adrenaline (α1) receptor worked out at 4.6 nM; at dopamine (D2) receptor, 18 nM; at serotonin (S2) receptor, 2.4 nM. Moreover, in assay [1], the inhibition in vivo at 1 mg/kg stood at 100%.
With `c1ccc(-c2cc(N3CCNCC3)nc3c2CCCC3)cc1` [Example 86, 2-(1-piperazinyl)-4-phenyl-5,6,7,8-tetrahydroquinoline], the IC50 at adrenaline (α1) receptor is 530 nM; on serotonin (S1) receptor it was 1400 nM; at dopamine (D2) receptor, 730 nM; on serotonin (S2) receptor, 81 nM. Moreover, in assay [3], the “Improvement (spontaneous alternation)” value is listed as 47.6%.
In the case of `Fc1ccc(-c2cc(N3CCNCC3)nc3c2CCCC3)cc1` [Example 92, 2-(1-Piperazinyl)-4-(4-fluorophenyl)-5,6,7,8-tetrahydroquinoline], the IC50 at adrenaline (α1) receptor was 380 nM; on serotonin (S1) receptor, 1900 nM; at dopamine (D2) receptor, 300 nM; on serotonin (S2) receptor, 27 nM. Moreover, the response vs control in vivo at 10 mg/kg was found to be 139% in assay [2] (setting [5]), 208% in assay [2] (setting [6]), 192% in assay [2] (setting [7]) and 121% in [2] (setting [8]). The “Improvement (step-down latency)” value amounted to 44% in assay [4] (dose 2.0 mg/kg i.p.) and 78% in assay [4] (dose 10.0 mg/kg i.p.).
On to `c1ccc(-c2cc(N3CCNCC3)nc3c2CCCCC3)cc1` [Example 96], for which the IC50 on adrenaline (α1) receptor was 1100 nM; on serotonin (S1) receptor it was 4900 nM; on dopamine (D2) receptor, 660 nM; at serotonin (S2) receptor it was 62 nM. Besides, the response vs control in vivo at 10 mg/kg in assay [2] (setting [5]) came to 127%; in assay [2] (setting [6]) it was 201%; in [2] (setting [7]) it was 194%; in [2] (setting [8]) it was 115%. The “Improvement (step-down latency)” value in assay [4] (dose 0.5 mg/kg i.p.) was found to be 81%; in [4] (dose 2.0 mg/kg i.p.) it was 64%.
